Measurements reported in patent US10126304B2, “Binding domain mapping” (George Mason Research Foundation, Inc., priority 2013, dated 2018).
“Also recorded” adds a separate entry of the source.

How the values were obtained:
[1] = target: T1, IL1R1 molecule, soluble portion (Homo sapiens, UniProt P14778); assay: Trypsin sites blocked by small organic molecules on folded protein, mass spectrometry; assay type: biochemical
T1 construct: Linear representation of IL1R1 molecule, soluble portion; purchased Adipogen
T1 sequence (P14778 21-336): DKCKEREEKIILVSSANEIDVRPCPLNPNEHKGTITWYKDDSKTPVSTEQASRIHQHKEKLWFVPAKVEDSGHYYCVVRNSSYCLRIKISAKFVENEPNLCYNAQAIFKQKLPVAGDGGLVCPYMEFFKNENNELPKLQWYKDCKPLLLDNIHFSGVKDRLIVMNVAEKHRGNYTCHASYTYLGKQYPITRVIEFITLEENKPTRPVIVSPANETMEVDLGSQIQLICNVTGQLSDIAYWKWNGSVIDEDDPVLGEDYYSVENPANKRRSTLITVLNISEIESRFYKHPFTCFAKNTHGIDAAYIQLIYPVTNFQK
Text: The binding of the small organic molecules is localized to multiple sites restricted to the surface of the protein, and excluded from internal domains of protein-protein interactions […]. […] Thus these molecules can be employed to reveal a) the inner contact domains of a single folded protein or b) the contact domains of two or more interacting proteins.
To identify functional protein-protein interaction domains, three equimolar concentrations of Interleukin ligand, its cognate receptor, and its accessory proteins were selected as a proof of concept protein complex. Interleukin 1β (IL1β, Gibco, 65 pmoles in 50 μl PBS), Interleukin 1 receptor type I (IL1RI, Adipogen, 65 pmoles in 50 μl PBS), and Interleukin 1 receptor accessory protein (IL1RAcP, Novoprotein, 65 pmoles in 50 μl PBS), were allowed to interact for one hour at room temperature under rotation. […]
As a control to identify solvent accessible surface areas, protein solutions were prepared in parallel at the same concentrations without adding paint molecules. […] Equal quantities of unbound, Interleukin 1β, IL1RI, or IL1RAcP were mixed individually with each of the four molecular paints (3 proteins×4 paints, n=12) in a 1:10 molar ratio (protein:molecular paint). […]
The solutions were immediately passed through a size sieving Sephadex column (PD MiniTrap G 25, GE Healthcare) and the flow through was collected, denatured with urea (final concentration 2M), reduced with 1 M dithiothreitol (Sigma, 15 minutes at 37° C.), alkylated with 0.5 M iodoacetamide (Sigma, 15 minutes, room temperature in the dark), and digested with trypsin (Promega) at 1:10 w/w protease/protein ratio for 2 hours at 37° C. Tryptic peptides were purified by Zip-Tip (Millipore) following manufacturer's instructions, and analyzed by reversed-phase liquid chromatography nanospray tandem mass spectrometry (LC-MS/MS) using an LTQ-Orbitrap mass spectrometer (ThermoFisher).

[2] = tested on: SAPK/JNK signaling downstream from IL1RI; assay: SAPK/JNK signaling in IL1β stimulated NCI/ADR-RES cells, western blotting; assay type: cell-based; details: IL1β 10 ng/mL; Arg286 peptide 3.3, 16.7 and 33 μM; scrambled peptide 33 μM
Method: NCI/ADR-RES cells (Division of Cancer Treatment and Diagnosis, National Cancer Institute) were cultured in Dulbecco's modified Eagle's medium (Gibco) with 10% fetal bovine serum (ATCC), and 2 mM L-glutamine (ATCC) at 37° C., 5% CO2, in a humidified environment. NCI/ADR-RES cells (2×10^6 cells/well) were plated into 6-well tissue culture dishes. The following day, cells were pre-treated for 30 minutes with soluble IL1RAcP (1 μg/mL) lacking the trans-membrane domain, Arg286 peptide ([…], 3.3, 16.7 and 33 μM) (SEQ ID NO:6) and a scrambled peptide obtained by randomly shuffling Arg286 sequence ([…], 33 μM) (SEQ ID NO:7). Cells were washed with Dulbecco's modified Eagle's medium with 10% fetal bovine serum, and 2 mM glutamine and were stimulated with IL1β at 10 ng/ml for 30 min. Following incubation, cells were washed in ice-cold PBS, incubated with 100 μl of cell lysis buffer (10% Bond Breaker TCEP solution (Thermo Scientific), 45% T-PER tissue protein extraction reagent (Thermo Scientific) and 45% Novex Tris Glycine SDS sample buffer 2× (Invitrogen)), scraped, transferred to Eppendorf tubes, and heated at 100° C. for 10 minutes. Cell lysates were analyzed by western blotting.
Proteins were separated by 1-D gel electrophoresis in 4-20% Tris-Glycine gel in the presence of Tris-Glycine SDS running buffer with the following run conditions: 125 V, 90 minutes. […]

[3] = target: T2, IL1β-IL1RI-IL1RAcP complex (Homo sapiens, UniProt P01584+P14778); assay: Pull-down of IL1β within the receptor complex by His-tagged IL1RAcP (immunoprecipitation); assay type: binding; details: Arg286 peptide 6.7, 3.3, 1.7, 0.8 and 0.4 μM
T2 construct: purchased Gibco (IL1β); Adipogen (IL1RI); Novoprotein (IL1RAcP)
Method: IL1β (0.44 μg/mL), IL1RI (2 μg/mL) and 6×His-tagged IL1RAcP (0.72 μg/mL) were incubated with Arg286 peptide (6.7, 3.3, 1.7, 0.8 and 0.4 μM) in 50 μl of PBS for one hour at room temperature under rotation. In parallel, […], IL1RI and 6×His-tagged IL1RAcP were allowed to interact without Arg286 peptide as a positive control. IL1β, and 6×His-tagged IL1RAcP were allowed to interact in absence of IL1RI as a negative control. After 1 hour, protein mixtures were incubated with magnetic beads decorated with anti-6His mouse monoclonal antibody obtained as follows. BcMag Protein G Magnetic Beads (50 μl, Bioclone) were washed 3 times with washing buffer (57.7 mM Na2HPO4, 42.3 mM NaH2PO4, pH 7.0) and incubated with anti-6×His mouse monoclonal antibody (1 μg, Abcam) for 30 minutes under rotation. Magnetic beads were separated from the supernatant with neodymium magnets, washed three times with washing buffer (57.7 mM Na2HPO4, 42.3 mM NaH2PO4, pH 7.0) and incubated with protein mixtures for one hour at room temperature under rotation. Magnetic beads were separated from the supernatant with neodymium magnets and washed three times with washing buffer (57.7 mM Na2HPO4, 42.3 mM NaH2PO4, pH 7.0). Immuno-precipitated proteins were eluted with 20 μl of 4× sample buffer (10 minutes, 70° C.). Immuno-precipitated proteins were analyzed by western blotting. […]

T2 sequence (P01584 117-269, one chain of several): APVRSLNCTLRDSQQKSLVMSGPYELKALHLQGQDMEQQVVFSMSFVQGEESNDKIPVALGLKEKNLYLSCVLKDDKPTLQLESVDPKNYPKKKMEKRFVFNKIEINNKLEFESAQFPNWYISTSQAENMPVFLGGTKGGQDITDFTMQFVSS

Compound | location of blocked trypsin sites on IL1R1 [1] | inhibition of SAPK/JNK signaling downstream from IL1RI [2] | inhibition of ligand pull-down / 3-protein complex formation [3]
CN=C1C=CC(=C(c2ccc(N(C)C)cc2)c2ccc(N(C)C)cc2)C=C1.Cl [MV, N-(4-{bis[4-(dimethylamino)phenyl]methylene}-2,5-cyclohexadien-1-ylidene)methanaminium chloride] | lay on the surface of the folded native molecule | – | –
HLRNISRISSITDTSETETEQ [scrambled peptide] | – | does not inhibit the signaling downstream from IL1RI | –
TINESISHSRTEDETRTQILS [Arg286 peptide] | – | completely blocked IL1 ligand-stimulated signaling, in a dose dependent manner; also recorded: inhibited SAPK/JNK signaling downstream from IL1RI as effectively as IL1RAcP | completely blocked IL1RAcP 3-way binding to the receptor ligand complex; also recorded: inhibition of ligand pull-down
O=S(=O)(O)c1cccc2cccc(Nc3ccccc3)c12 [ANSA, 8-Anilino-1-naphthalenesulfonic acid] | lay on the surface of the molecule | – | –
CCN1/C(=C/C=C/c2sc3ccccc3[n+]2CC)Sc2ccccc21 [DECI, 3,3′-Diethylthiacarbocyanine iodide] | lay on the surface of the folded molecule | – | –
